{"source": "PubChem BioAssay (NCI)", "test_in_all_cases": "NCI-60 cell line screen, 48 h", "key": {"[1]": {"system": "SF-539 CNS"}, "[2]": {"system": "SNB-75 CNS"}, "[3]": {"system": "HCT-15 colon"}, "[4]": {"system": "OVCAR-5 ovarian"}, "[5]": {"system": "CAKI-1 renal"}, "[6]": {"system": "SN12C renal"}, "[7]": {"system": "SW-620 colon"}, "[8]": {"system": "HCC-2998 colon"}, "[9]": {"system": "UACC-62 melanoma"}, "[10]": {"system": "RXF 393 renal"}, "[11]": {"system": "SF-295 CNS"}, "[12]": {"system": "LOX IMVI melanoma"}, "[13]": {"system": "UO-31 renal"}, "[14]": {"system": "A549 NSCLC"}, "[15]": {"system": "TK-10 renal"}, "[16]": {"system": "KM12 colon"}, "[17]": {"system": "PC-3 prostate"}, "[18]": {"system": "NCI-H23 lung"}, "[19]": {"system": "MDA-MB-435"}, "[20]": {"system": "MCF7 breast"}, "[21]": {"system": "OVCAR-3 ovarian"}, "[22]": {"system": "K-562 leukemia"}, "[23]": {"system": "M14 melanoma"}, "[24]": {"system": "U251 CNS"}, "[25]": {"system": "MOLT-4 leukemia"}, "[26]": {"system": "ACHN renal"}, "[27]": {"system": "SK-MEL-5 melanoma"}, "[28]": {"system": "CCRF-CEM leukemia"}, "[29]": {"system": "HT29 colon"}, "[30]": {"system": "SR leukemia"}, "[31]": {"system": "MALME-3M melanoma"}, "[32]": {"system": "SK-MEL-28 melanoma"}, "[33]": {"system": "HS 578T breast"}, "[34]": {"system": "NCI/ADR-RES ovarian"}, "[35]": {"system": "T-47D breast"}, "[36]": {"system": "SK-OV-3 ovarian"}, "[37]": {"system": "HL-60(TB) leukemia"}, "[38]": {"system": "DU-145 prostate"}, "[39]": {"system": "786-0 renal"}, "[40]": {"system": "BT-549 breast"}, "[41]": {"system": "OVCAR-8 ovarian"}, "[42]": {"system": "MDA-MB-231 breast"}, "[43]": {"system": "EKVX NSCLC"}, "[44]": {"system": "RPMI-8226 leukemia"}, "[45]": {"system": "HOP-92 NSCLC"}, "[46]": {"system": "A498 renal"}, "[47]": {"system": "SF-268 CNS"}, "[48]": {"system": "HCT-116 colon"}, "[49]": {"system": "HOP-62 NSCLC"}, "[50]": {"system": "UACC-257 melanoma"}, "[51]": {"system": "NCI-H460 lung"}}, "note": "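Assay format: 96-well plates, 48-hour exposure. The concentration for 50% growth inhibition is given as GI50. TGI denotes the concentration required for complete inhibition of growth.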", "data": [{"smiles": "COC[C@]12CC[C@@H](C)[C@H](C)[C@H]1C1=CC[C@@H]3[C@@]4(C)CCCNC(C)(C)[C@@H]4CC[C@@]3(C)[C@]1(C)CC2", "values": [{"measurement": "GI50", "setting": "[1]", "value": 1600, "unit": "nM"}, {"measurement": "TGI", "setting": "[1]", "value": 3030, "unit": "nM"}, {"measurement": "GI50", "setting": "[2]", "value": 1770, "unit": "nM"}, {"measurement": "TGI", "setting": "[2]", "value": 4770, "unit": "nM"}, {"measurement": "GI50", "setting": "[3]", "value": 1510, "unit": "nM"}, {"measurement": "TGI", "setting": "[3]", "value": 3160, "unit": "nM"}, {"measurement": "GI50", "setting": "[4]", "value": 1810, "unit": "nM"}, {"measurement": "TGI", "setting": "[4]", "value": 3320, "unit": "nM"}, {"measurement": "GI50", "setting": "[5]", "value": 1750, "unit": "nM"}, {"measurement": "TGI", "setting": "[5]", "value": 3360, "unit": "nM"}, {"measurement": "GI50", "setting": "[6]", "value": 3090, "unit": "nM"}, {"measurement": "TGI", "setting": "[6]", "value": 11800, "unit": "nM"}, {"measurement": "GI50", "setting": "[7]", "value": 1800, "unit": "nM"}, {"measurement": "TGI", "setting": "[7]", "value": 3580, "unit": "nM"}, {"measurement": "GI50", "setting": "[8]", "value": 1760, "unit": "nM"}, {"measurement": "TGI", "setting": "[8]", "value": 3380, "unit": "nM"}, {"measurement": "GI50", "setting": "[9]", "value": 1710, "unit": "nM"}, {"measurement": "TGI", "setting": "[9]", "value": 3190, "unit": "nM"}, {"measurement": "GI50", "setting": "[10]", "value": 1540, "unit": "nM"}, {"measurement": "TGI", "setting": "[10]", "value": 3020, "unit": "nM"}, {"measurement": "GI50", "setting": "[11]", "value": 1880, "unit": "nM"}, {"measurement": "TGI", "setting": "[11]", "value": 3570, "unit": "nM"}, {"measurement": "GI50", "setting": "[12]", "value": 1130, "unit": "nM"}, {"measurement": "TGI", "setting": "[12]", "value": 2490, "unit": "nM"}, {"measurement": "GI50", "setting": "[13]", "value": 1570, "unit": "nM"}, {"measurement": "TGI", "setting": "[13]", "value": 3200, "unit": "nM"}, {"measurement": "GI50", "setting": "[14]", "value": 1800, "unit": "nM"}, {"measurement": "TGI", "setting": "[14]", "value": 3770, "unit": "nM"}, {"measurement": "GI50", "setting": "[15]", "value": 1870, "unit": "nM"}, {"measurement": "TGI", "setting": "[15]", "value": 3520, "unit": "nM"}, {"measurement": "GI50", "setting": "[16]", "value": 1860, "unit": "nM"}, {"measurement": "TGI", "setting": "[16]", "value": 3430, "unit": "nM"}, {"measurement": "GI50", "setting": "[17]", "value": 1490, "unit": "nM"}, {"measurement": "TGI", "setting": "[17]", "value": 3380, "unit": "nM"}, {"measurement": "GI50", "setting": "[18]", "value": 1800, "unit": "nM"}, {"measurement": "TGI", "setting": "[18]", "value": 3620, "unit": "nM"}, {"measurement": "GI50", "setting": "[19]", "value": 1650, "unit": "nM"}, {"measurement": "TGI", "setting": "[19]", "value": 3110, "unit": "nM"}, {"measurement": "GI50", "setting": "[20]", "value": 1540, "unit": "nM"}, {"measurement": "TGI", "setting": "[20]", "value": 3370, "unit": "nM"}, {"measurement": "GI50", "setting": "[21]", "value": 1830, "unit": "nM"}, {"measurement": "TGI", "setting": "[21]", "value": 3290, "unit": "nM"}, {"measurement": "GI50", "setting": "[22]", "value": 1050, "unit": "nM"}, {"measurement": "TGI", "setting": "[22]", "value": 2810, "unit": "nM"}, {"measurement": "GI50", "setting": "[23]", "value": 1770, "unit": "nM"}, {"measurement": "TGI", "setting": "[23]", "value": 3570, "unit": "nM"}, {"measurement": "GI50", "setting": "[24]", "value": 1720, "unit": "nM"}, {"measurement": "TGI", "setting": "[24]", "value": 3430, "unit": "nM"}, {"measurement": "GI50", "setting": "[25]", "value": 1300, "unit": "nM"}, {"measurement": "TGI", "setting": "[25]", "value": 3030, "unit": "nM"}, {"measurement": "GI50", "setting": "[26]", "value": 1780, "unit": "nM"}, {"measurement": "TGI", "setting": "[26]", "value": 3220, "unit": "nM"}, {"measurement": "GI50", "setting": "[27]", "value": 1710, "unit": "nM"}, {"measurement": "TGI", "setting": "[27]", "value": 3110, "unit": "nM"}, {"measurement": "GI50", "setting": "[28]", "value": 1670, "unit": "nM"}, {"measurement": "TGI", "setting": "[28]", "value": 4200, "unit": "nM"}, {"measurement": "GI50", "setting": "[29]", "value": 1580, "unit": "nM"}, {"measurement": "TGI", "setting": "[29]", "value": 3260, "unit": "nM"}, {"measurement": "GI50", "setting": "[30]", "value": 1480, "unit": "nM"}, {"measurement": "TGI", "setting": "[30]", "value": 3250, "unit": "nM"}, {"measurement": "GI50", "setting": "[31]", "value": 1740, "unit": "nM"}, {"measurement": "TGI", "setting": "[31]", "value": 3610, "unit": "nM"}, {"measurement": "GI50", "setting": "[32]", "value": 1810, "unit": "nM"}, {"measurement": "TGI", "setting": "[32]", "value": 3340, "unit": "nM"}, {"measurement": "GI50", "setting": "[33]", "value": 2040, "unit": "nM"}, {"measurement": "TGI", "setting": "[33]", "value": 4850, "unit": "nM"}, {"measurement": "GI50", "setting": "[34]", "value": 1780, "unit": "nM"}, {"measurement": "TGI", "setting": "[34]", "value": 3570, "unit": "nM"}, {"measurement": "GI50", "setting": "[35]", "value": 1870, "unit": "nM"}, {"measurement": "TGI", "setting": "[35]", "value": 4390, "unit": "nM"}, {"measurement": "GI50", "setting": "[36]", "value": 5130, "unit": "nM"}, {"measurement": "TGI", "setting": "[36]", "value": 19800, "unit": "nM"}, {"measurement": "GI50", "setting": "[37]", "value": 1280, "unit": "nM"}, {"measurement": "TGI", "setting": "[37]", "value": 3050, "unit": "nM"}, {"measurement": "GI50", "setting": "[38]", "value": 1930, "unit": "nM"}, {"measurement": "TGI", "setting": "[38]", "value": 3410, "unit": "nM"}, {"measurement": "GI50", "setting": "[39]", "value": 1690, "unit": "nM"}, {"measurement": "TGI", "setting": "[39]", "value": 3210, "unit": "nM"}, {"measurement": "GI50", "setting": "[40]", "value": 1800, "unit": "nM"}, {"measurement": "TGI", "setting": "[40]", "value": 3600, "unit": "nM"}, {"measurement": "GI50", "setting": "[41]", "value": 2190, "unit": "nM"}, {"measurement": "TGI", "setting": "[41]", "value": 4940, "unit": "nM"}, {"measurement": "GI50", "setting": "[42]", "value": 1810, "unit": "nM"}, {"measurement": "TGI", "setting": "[42]", "value": 3400, "unit": "nM"}, {"measurement": "GI50", "setting": "[43]", "value": 1700, "unit": "nM"}, {"measurement": "TGI", "setting": "[43]", "value": 3420, "unit": "nM"}, {"measurement": "GI50", "setting": "[44]", "value": 2190, "unit": "nM"}, {"measurement": "TGI", "setting": "[44]", "value": 5190, "unit": "nM"}, {"measurement": "GI50", "setting": "[45]", "value": 1540, "unit": "nM"}, {"measurement": "TGI", "setting": "[45]", "value": 4360, "unit": "nM"}, {"measurement": "GI50", "setting": "[46]", "value": 1510, "unit": "nM"}, {"measurement": "TGI", "setting": "[46]", "value": 3380, "unit": "nM"}, {"measurement": "GI50", "setting": "[47]", "value": 1920, "unit": "nM"}, {"measurement": "TGI", "setting": "[47]", "value": 3740, "unit": "nM"}, {"measurement": "GI50", "setting": "[48]", "value": 1490, "unit": "nM"}, {"measurement": "TGI", "setting": "[48]", "value": 2920, "unit": "nM"}, {"measurement": "GI50", "setting": "[49]", "value": 1730, "unit": "nM"}, {"measurement": "TGI", "setting": "[49]", "value": 3550, "unit": "nM"}, {"measurement": "GI50", "setting": "[50]", "value": 2050, "unit": "nM"}, {"measurement": "TGI", "setting": "[50]", "value": 4460, "unit": "nM"}, {"measurement": "GI50", "setting": "[51]", "value": 1720, "unit": "nM"}, {"measurement": "TGI", "setting": "[51]", "value": 3350, "unit": "nM"}]}]}
